Consider 86 molecules from a melting point compilation (Tetko et al.; mined from patent text by program, amines drawn as free bases though some values may be those of a salt).

Structures are written as SMILES. Bounds are passed on as bounds.

In the case of `N=C(Cc1ccccc1)Nc1ncccc1OCc1ccccc1`, the melting point was in the range of 114 to 116 °C.

Molecule `Cc1ccc(-c2nc3ccccc3s2)cc1` registered a melting point of 84 to 85 °C.

Molecule `CC(C)(C)c1cc(Cl)n2ncnc2n1` came in with a melting point of 285 to 286 °C.

For `CC(C)Cc1c2c(nn1C)c(N)nc1ncccc12`, the melting point is over 250 °C.

As to `O=c1[nH]c2cc(C(F)(F)F)ccc2c(-c2cc(Cl)ccc2O)c1NS(=O)(=O)C(F)(F)F`, the melting point was 267 to 270 °C.

On to `O=C(O)CCc1cc2cc(Cl)ccc2n1S(=O)(=O)c1ccccc1`, for which the melting point lay in the range of 165 to 168 °C.

On to `COC(=O)CCc1ccccc1CC1C2CCC(O2)C1c1nc(C(=O)CCCCCC2CCCCC2)co1` (stereo unspecified), for which the melting point lay within 170 to 171 °C.

`CCCCn1c(=O)c(NC(=O)Nc2c(C(C)C)cccc2C(C)C)c(-c2cccc(OCCCCl)c2)c2cccnc21` registered a melting point of 138 to 140 °C.

For the molecule `O=C(Nc1cccc(Nc2ccc3c(c2)NC(=O)C3=Cc2ccc[nH]2)c1)Nc1cccc(C(F)(F)F)c1`, the melting point was in the range of 253 to 256 °C.

For `CCCCCCCCCCCCCCCCCCOc1cccc(C(=O)OC)c1OCCCOc1ccc(OCc2ccccc2)cc1`, the melting point is 43 to 45 °C.

The molecule `O=C(Cc1cc(F)ccc1F)N1CCNc2ncc(I)cc21` gave a melting point of 152 to 153 °C.

On to `Cc1cccc(O)c1S(N)(=O)=O`, for which the melting point was determined as 126 °C.

The molecule `CCn1c(=O)ccc2cnc(Nc3ccc(OC)cc3)nc21` showed a melting point of 196 to 197 °C.

As for `O=C(Nc1cccc(C(F)(F)F)c1)C(=O)N1CCC(Cc2ccccc2)CC1`, the melting point was 87 to 89 °C.

As for `CCCCCCCOc1ccc(-c2ncc(C#N)c(Cl)n2)cc1`, the melting point is 133 to 135 °C.

In turn, `CN1Cc2c(C#CC(O)(C3CC3)C3CC3)ncn2-c2cccc(Cl)c2C1=O` gave a melting point of 179 to 181 °C.

In turn, `COc1ccc(NS(=O)(=O)c2cc(S(=O)(=O)Nc3ccc(OC)cc3C)c3cc(O)ccc3c2)c(C)c1` showed a melting point of 211 to 213 °C.

`N[C@H]1C[C@H]2[C@H](C(=O)O)[C@H]2[C@]1(N)C(=O)O` returned a melting point of over 250 °C.

Turning to `Cc1ccc(-c2c(NS(=O)(=O)c3ccc(C(C)(C)C)cc3)nc(NCCO)nc2OCCOCc2ccccc2)cc1`, the melting point lay in the range of 124 to 126 °C.

`Cc1cc2[nH]c(=O)ccc(=O)c2cc1C`: the melting point was found to be 258 °C.

`COc1ccc(C(=O)N[C@H](C(=O)N2CCC[C@H]2C(=O)N[C@@H](C(C)C)[C@@H](O)C(F)(F)F)C(C)C)cc1` yielded a melting point of 168 to 170 °C.

As to `O=C1[C@H]2CCC[C@H]2N(C(=O)CCCCCBr)c2ccccc2N1Cc1ccccc1` (relative stereo), the melting point was 111 to 112 °C.

`CCOC(=O)c1ccc(N(C)Cc2ccc(Cl)cc2)cc1` yielded a melting point of 106 to 107 °C.

Regarding `O=[N+]([O-])c1cc2nc(Cl)n(C3OC(CO)C(O)C3O)c2cc1[N+](=O)[O-]` (stereo unspecified), the melting point was in the range of 132 to 135 °C.

`CCCc1c(OCCCOc2ccc(C(=O)CCC(=O)O)c(F)c2)ccc(C(C)=O)c1O` gave a melting point of 113 to 118 °C.

`O=C(/C=C/c1ccc(C(=O)O)s1)NOC1CCCCO1` (stereo unspecified) displayed a melting point of 177 °C.

`Cc1ncc(C(O)=S)cc1OC1CCCC1` showed a melting point of 177 to 178 °C.

Consider `CCCCCCCNC(=O)Nc1ccccc1N(C)C(=O)c1cc(C(C)(C)C)c(O)c(C(C)(C)C)c1`, for which the melting point is 193 to 196 °C.

With `Cc1cc2cc(CN3CCC(CC(=O)N4CCCCC4)CC3)cnc2cc1NC(=O)c1ccc(-c2ccc(F)cc2)cc1`, the melting point was determined as 216 °C.

As for `N#Cc1cnc2cc(I)ccc2c1Cl`, the melting point fell in the range of 165 to 167 °C.

The molecule `COCc1cnc2c(NC(=O)c3c(Cl)cccc3Cl)cc(C)cc2c1Cl` displayed a melting point of 156 to 158 °C.

The molecule `CNC(=O)c1nn(-c2ccc(Cl)cc2)c(=O)c2c(N)scc12` had a melting point of 192 to 194 °C.

`CC(C)NC(=O)c1cc2ncn(C)c2c(Cl)c1NC(=O)c1cc(C(F)(F)F)nn1-c1ncccc1Cl` came in with a melting point of 150 to 155 °C.

`Cc1cc(Oc2ccc([N+](=O)[O-])cc2)c2ncccc2c1` returned a melting point of 143 °C.

For `Cn1c(CON2C(=O)c3ccccc3C2=O)ncc(OCc2ccccc2)c1=O`, the melting point came out at 170 °C.

The molecule `Oc1nc2ccc(F)cc2nc1O` came in with a melting point of over 300 °C.

`COc1ccc(C(C)C)cc1-c1cc(-c2nnnn2C2CCN(C(=O)OC(C)(C)C)CC2)c(OCc2ccccc2)cc1OCc1ccccc1` gave a melting point of 77 to 81 °C.

`Oc1ccc2c(c1)C13CCN(CC4CC4)C(C2)C1OCOC3` (stereo unspecified): the melting point lay in the range of 193 to 196 °C.

For `O=C(c1ccccc1)c1ccccc1I`, the melting point fell in the range of 29 to 31 °C.

For `CCCCCCC1c2sccc2CCN1CCNC(=O)c1ccc(NS(C)(=O)=O)cc1` (stereo unspecified), the melting point was in the range of 132 to 134 °C.

`NC(=O)C1CN(Cc2ccccc2)CCN1CCCC(c1ccc(F)cc1)c1ccc(F)cc1` (stereo unspecified): the melting point amounted to 79.2 °C.

As to `CC12CCC(C(=Cc3ccccc3[N+](=O)[O-])C1=O)C2(C)C` (stereo unspecified), the melting point was 118 °C.

On to `COc1ccc(OC)c2c(=O)cc(C(=O)O)sc12`, for which the melting point is 210 to 212 °C.

Consider `COc1ccc(N2CCOCC2)c2sc(NC(=O)N3C[C@@H]4CC[C@H]3C4)nc12`, for which the melting point stood at 149 °C.

Consider `c1cnc(NCCc2c[nH]cn2)cn1`, for which the melting point was in the range of 200 to 202 °C.

On to `CC(C)c1nc2c(c3c1[nH]c1ccccc13)C(=O)C(C)(C)CC2`, for which the melting point fell in the range of 182 to 184 °C.

Molecule `O=C(c1ccc(O)cc1)c1ccc(Cl)cc1Cl` came in with a melting point of 140 °C.

Turning to `COc1cccc2c1CCCC2=NNc1nc(-c2ccc(Cl)cc2Cl)cs1`, the melting point worked out at 200 °C.

The molecule `COc1cc(C2CCC(c3cc(OC)c(OC)c(OC)c3)O2)cc(OC)c1OC` (stereo unspecified) returned a melting point of 128 to 130 °C.

As for `O=C(Nc1ccccc1)Nc1cc(Br)nc(Br)c1`, the melting point is 237 to 239 °C.

In turn, `CC(C)[C@@H]1C[C@@H]([C@H](CC2CCCCC2)NC(=O)OC(C)(C)C)OC1=O` yielded a melting point of 114 to 116 °C.

`CC(=O)Oc1ccc(C(=O)NNC(=O)OC(C)(C)C)cc1OC(C)=O` had a melting point of 78 to 82 °C.

Molecule `CCCCNCc1ccc(-c2ccccc2S(=O)(=O)NC(C)(C)C)cc1` showed a melting point of 98 to 99 °C.

As to `CC(C)(C)OC(=O)NC(C(=O)Nc1n[nH]c(=S)s1)c1ccccc1` (stereo unspecified), the melting point was 194 to 195 °C.

`CCn1ncc2c(NCc3ccco3)c3ccccc3nc21` displayed a melting point of 156 to 158 °C.

In the case of `CC(=O)OCCn1ccc(=O)c(OCc2ccccc2)c1C(OC(C)=O)c1ccccc1F` (stereo unspecified), the melting point lay within 173 to 174 °C.

For the molecule `CC1(C=O)CC1(c1ccc(F)cc1)c1ccc(F)cc1` (stereo unspecified), the melting point was in the range of 110 to 113 °C.

As for `C#Cc1cccc(Nc2ncnc3ccc(-c4ccccc4C(=O)OCC)cc23)c1`, the melting point fell in the range of 174 to 177 °C.

Molecule `NC(=O)N1C(=O)C(C(=O)c2sccc2Br)c2cc(Cl)ccc21` (stereo unspecified) had a melting point of 216 to 217 °C.

`O=C1NCCN(N=Cc2ccco2)C1=O` registered a melting point of 193 to 197 °C.

`CN(Cc1ccc(NC(=O)C2=Cc3cc(-c4ccc5c(c4)OCCCO5)ccc3S(=O)(=O)CC2)cc1)C1CCOCC1` registered a melting point of 242 to 245 °C.

In the case of `Cc1cc2ncnn2nc1OCCCC(C)(C)CCS(N)(=O)=O`, the melting point lay in the range of 154 to 155 °C.

Regarding `CC(=O)NCc1ccc2oc([N+](=O)[O-])c(-c3ccccc3)c2c1`, the melting point lay in the range of 201 to 203 °C.

In the case of `COc1ccc(-c2cc(CN3CCNCC3)c(=O)n(CC3CC3)n2)cc1F`, the melting point was 112 to 118 °C.

Molecule `Cc1ccc(Sc2cncc3sc(C(=O)O)cc23)cc1` yielded a melting point of 272 to 274 °C.

On to `O=C1CCC=C2N=CC=NC=C12`, for which the melting point fell in the range of 141 to 146 °C.

As for `CC(C)c1cc(C(C)C)c(CC(=O)c2ccc(-c3ccccc3)c(OS(N)(=O)=O)c2-c2ccccc2)c(C(C)C)c1`, the melting point lay in the range of 129 to 132 °C.

With `CC(C)(C)OC(=O)c1ncn2c1[C@@H]1CCCN1C(=O)c1c-2ccc(N)c1Br`, the melting point was 245 to 246 °C.

In turn, `CC(C)C(=C(c1ccccc1)c1ccccc1)P(C1CCCCC1)C1CCCCC1` had a melting point of 162 to 163 °C.

`O=CCCCCC(c1cc(F)ccc1F)S(=O)(=O)c1ccc(Cl)cc1` (stereo unspecified) showed a melting point of 135 to 136 °C.

Turning to `Cc1ccc(S(=O)(=O)NCC(=O)c2ccccc2)cc1`, the melting point is 148 to 149 °C.

`COc1ccc(C(=O)c2ccccc2)cc1Cl` registered a melting point of 87 °C.

`CC(C)(C)OC(=O)C1CCCN1Cc1ccc2cc(NC(=O)c3ccc(-c4ccc(Cl)cc4)cc3)ccc2n1` (stereo unspecified) gave a melting point of 163 to 166 °C.

In turn, `CC(C)(C)c1csc(-c2cc3cc(C=O)ccc3o2)n1` returned a melting point of 83 to 84 °C.

For the molecule `CCc1cc(OCc2ccc(C(=O)NS(=O)(=O)c3ccccc3C)cc2)c(C(=O)OC)c(CC)n1`, the melting point was in the range of 175 to 176 °C.

In turn, `COC(=O)c1ccc(/C=C(\C)c2ccc3c(c2)C(C)(C)CCO3)cc1` returned a melting point of 92 to 95 °C.

In turn, `COc1cccc(-c2cc(NC(=O)CC(=O)C(F)(F)F)[nH]n2)c1` displayed a melting point of 107 to 110 °C.

For the molecule `CCOc1ccc(NN=C2CCC(C)n3c2ncc(C(=O)O)c3=O)cc1` (stereo unspecified), the melting point lay in the range of 218 to 219 °C.

Regarding `Fc1ccc(F)c(CC2CCN([C@H]3CC[C@H](c4ccc5c(c4)OCO5)CC3)CC2)c1`, the melting point lay within 96 to 97 °C.

For the molecule `CC(C)(C)OC(=O)CCc1ccc(Cc2nnn(C(C)(C)C)n2)cc1`, the melting point was 54 to 55 °C.

The molecule `COc1ccccc1CCn1nnnc1-c1ccc2c(c1)C=CC(C)(C)O2` returned a melting point of 101 to 105 °C.

In turn, `COc1ccccc1-c1nc(N)ncc1-c1ccc(=O)n(C(C)C)n1` showed a melting point of 170 °C.

For the molecule `CCCn1cc(Cc2ccc(C(=O)O)cc2OC)c2cc(C=CCC(=O)N(C)C)ccc21`, the melting point was in the range of 124 to 126 °C.

Turning to `NCC1(c2onc(-c3ccc(O)cc3)c2-c2ccccc2)CC1`, the melting point was in the range of 220 to 225 °C.

`O=C(c1cccc2cc[nH]c12)N1CCN(c2ccc(F)cc2)CC1` registered a melting point of 222 to 224 °C.

The molecule `CCC(=O)N1Cc2cn(C)nc2-c2cc(Cl)ccc21` yielded a melting point of 137 to 138 °C.
